Structures are written as SMILES.

Data set [1] is described as follows: Bundle tensile strength of permanently waved and fixed hair. The procedure:
The amount of permanent waving liquid was calculated from the ratio 1:1.2 (1 g of hair to 1.2 g of permanent waving liquid). The amount of 1.2 ml to 1 g of hair corresponds to an amount of 50 ml of permanent waving solution per head with an average weight of […] of hair per head. This solution was allowed to act for 15 minutes; the temperature of the reducing agent acting was 50° C. The permanent waving agent, based on thioglycolic acid, was rinsed out well with water (2 to 3 minutes). Subsequently, the hair strands were in each case moistened intensively with the respective ready-for-use fixative. This procedure was repeated three or six times, in that the strands, after each treatment, was suspended for six hours in the water bath.
The tensile strength of the bundles, which are a measure of the preservation of the hair, were determined using individual strands of hair.

The conditions of data set [2]: cited from earlier work.
Data set [3] is described as follows: Permanent waving application test: reductive treatment, then fixing with the ready-for-use fixative. As to conditions: hair reduced with 10% thioglycolic acid solution pH 8.2, then fixed. The procedure:
In these examples, the hair was treated reductively in each case in the following manner:
The solution was allowed to act for 15 minutes. The reducing agent acted at a temperature of 50° C.
At the end of the period of action, the excess permanent waving solution was rinsed out with water and the fixing solution was then applied with a sponge. The fixing solution is prepared 2 minutes before use by dissolving component 1 in component 2.
The hair is fixed for 30 minutes at 22° C. and subsequently rinsed with water. The curlers are then removed and the hair is rinsed with lukewarm water. Finally, the hair is styled and then dried.

On to `O=C1O[C@H]([C@@H](O)CO)C(=O)C1=O` [Dehydroascorbic Acid, dehydroascorbic acid], for which, in data set [1], the “increase in hair damage on repeated use (bundle tensile strength after three vs six treatments)” value was “no increase in hair damage”. In addition, in data set [2], the “stability in aqueous solution” value is “unstable and decomposes within a few hours”.
As for `OO` [Peroxide, hydrogen peroxide], in data set [3], the “brightening of the hair (shift in color)” value was “clearly detectable shift in coloring the direction of red and yellow”.

(Values after patent US6506373B1, “Agent and method for permanent waving” (Wella Aktiengesellschaft, priority 1998, dated 2003).)
